Results taken from patent publication US20140315876A1, “BETA-LACTAMASE INHIBITORS” (priority 2013, published 2014).
Counter-ions that a name gives are not always drawn.

Assays:
[1] = test system: bacterial strains that express the class D cephalosporinase OXA-15; assay: Synergy MIC / standard BLI potentiation MIC assay, strains expressing OXA-15; format: cell-based, E. coli; conditions: in the presence of a β-lactam; comparator Avibactam (comparator compound CCC)
Method: (§1) The experimental protocol was performed according to Clinical and Laboratory Standards Institute (CLSI) guidelines with modifications as described below (CLSI guidelines can be derived from the CLSI document M07-A9 published in January 2012: “Methods for Dilution Antimicrobial Susceptibility Tests for Bacteria That Grow Aerobically; Approved Standard-Ninth Edition”).
(§2) To prepare for MIC testing, frozen glycerol stocks of clinical isolates (Klebsiella pneumoniae, Eschericia coli, Enterobacter spp, Citrobacter spp, or Pseudomonas aeruginosa) were used to streak for isolated colonies on rich, non-selective, tryptic soy agar containing 5% sheep's blood (TSAB). Frozen glycerol stocks of laboratory engineered, isogenic E. coli strains, which contain cloned β-lactamase expressing plasmids were used to streak for isolated colonies on rich, selective LB agar supplemented with 25 μg/mL tetracycline to maintain the plasmid. All strains were incubated at 37° C. for 18-24 hrs.
(§3) On the day of testing, primary cultures were started by scraping off 5-10 colonies from the TSAB plates containing clinical strains or the tetracycline supplemented LB plates containing engineered strains. The clinical strain material was suspended in ˜5 mL of cation adjusted Mueller Hinton Broth (CAMHB) in 14 mL culture tubes. The engineered strain material was suspended in CAMHB (supplemented with 25 μg/mL tetracycline) in 14 mL culture tubes. All strains were incubated at 37° C. with aeration (200 rpm) for ˜2 hrs until the optical density at 600 nm (OD600) was ≧0.1.
(§4) The two compound components of the assay were each diluted in CAMHB and added to the 96-well broth microdilution assay plates. 50 μL of the β-lactam was added to each well of the assay plate in 2-fold dilutions with final concentrations ranging from 128 to 0.13 μg/mL. 25 μL of the BLI compound was added to all wells in the broth microdilution plates at a final concentration of 4 μg/mL. Inoculum cultures were prepared by standardizing the primary cultures to OD600=0.1 and then adding 20 μL of the adjusted primary culture per 1 mL CAMHB for clinical strains or CAMHB (supplemented with tetracycline at 100 μg/mL) for engineered strains, so that the final inoculum density was ˜10^5 colony forming units per milliliter. Diluted inoculum cultures were used to inoculate 25 μL per well in 96-well broth microdilution assay plates. The final volume of each well was 100 μL and contained a β-lactam at different concentrations, a BLI compound at 4 μg/mL concentration, the bacterial culture at an OD600 of approximately 0.001 and when necessary tetracycline at 25 μg/mL.
(§5) Plates were incubated for 18-20 hours at 37° C. with aeration (200 rpm). Following incubation, growth was confirmed visually placing plates over a viewing apparatus (stand with a mirror underneath) and then OD600 was measured using a SpectraMax 340PC384 plate reader (Molecular Devices, Sunnyvale, Calif.). Growth was defined as turbidity that could be detected with the naked eye or achieving minimum OD600 of 0.1. MIC values were defined as the lowest concentration producing no visible turbidity.
(§6) The synergy MIC (sMIC) assay determines the concentration of the BLI required to potentiate the activity of a fixed concentration of a β-lactam antibiotic against β-lactamase producing bacterial strains. The experimental protocol was performed according to Clinical and Laboratory Standards Institute (CLSI) guidelines with modifications as described below (CLSI guidelines can be derived from the CLSI document M07-A9 published in January 2012: “Methods for Dilution Antimicrobial Susceptibility Tests for Bacteria That Grow Aerobically; Approved Standard-Ninth Edition”). […]

[2] = test system: bacterial strains that express KPC β-lactamases; assay: Synergy MIC / standard BLI potentiation MIC assay, strains expressing KPC β-lactamases; format: cell-based; conditions: more active for at least one KPC strain and/or better spectrum of activity than Avibactam; in the presence of a β-lactam
Method: as §1, §2, §3, §4, §5, §6

SMILES	activity against bacterial strains that express the class D cephalosporinase OXA-15, compared with Avibactam [1]	activity and/or spectrum of activity against bacterial strains that express KPC β-lactamases, compared with Avibactam [2]
O=C1N2C[C@@H](CC[C@H]2c2nnc([C@H]3CNCCN3)o2)N1OS(=O)(=O)O [Compound 779, (2S,5R)-7-oxo-2-(5-((R)-piperazin-2-yl)-1,3,4-oxadiazol-2-yl)-1,6-diazabicyclo[3.2.1]octan-6-yl hydrogen sulfate]	more active than Avibactam	more active than Avibactam
O=C1N2C[C@@H](CC[C@H]2c2nnc(CCNC3CCNCC3)o2)N1OS(=O)(=O)O [Compound 770, (2S,5R)-7-oxo-2-(5-(2-(piperidin-4-ylamino)ethyl)-1,3,4-oxadiazol-2-yl)-1,6-diazabicyclo[3.2.1]octan-6-yl hydrogen sulfate]	more active than Avibactam	more active than Avibactam
O=C1N2C[C@@H](CC[C@H]2c2nnc([C@H]3CCNC3)o2)N1OS(=O)(=O)O [Compound 758, (2S,5R)-7-oxo-2-(5-((S)-pyrrolidin-3-yl)-1,3,4-oxadiazol-2-yl)-1,6-diazabicyclo[3.2.1]octan-6-yl hydrogen sulfate]	more active than Avibactam	more active than Avibactam
N=C(N)NCC1(c2nnc([C@@H]3CC[C@@H]4CN3C(=O)N4OS(=O)(=O)O)o2)CC1 [Compound 723, (2S,5R)-2-(5-(1-(guanidinomethyl)cyclopropyl)-1,3,4-oxadiazol-2-yl)-7-oxo-1,6-diazabicyclo[3.2.1]octan-6-yl hydrogen sulfate]	more active than Avibactam	more active than Avibactam
N=C(N)N1CC(NCc2nnc([C@@H]3CC[C@@H]4CN3C(=O)N4OS(=O)(=O)O)o2)C1 [Compound 746, (2S,5R)-2-(5-(((1-carbamimidoylazetidin-3-yl)amino)methyl)-1,3,4-oxadiazol-2-yl)-7-oxo-1,6-diazabicyclo[3.2.1]octan-6-yl hydrogen sulfate]	more active than Avibactam	more active than Avibactam
O=C1N2C[C@@H](CC[C@H]2c2nnc(C3CNC3)o2)N1OS(=O)(=O)O [Compound 708, (2S,5R)-2-(5-(azetidin-3-yl)-1,3,4-oxadiazol-2-yl)-7-oxo-1,6-diazabicyclo[3.2.1]octan-6-yl hydrogen sulfate]	more active than Avibactam	more active than Avibactam
CNCCc1nnc([C@@H]2CC[C@@H]3CN2C(=O)N3OS(=O)(=O)O)o1 [Compound 722, (2S,5R)-2-(5-(2-(methylamino)ethyl)-1,3,4-oxadiazol-2-yl)-7-oxo-1,6-diazabicyclo[3.2.1]octan-6-yl hydrogen sulfate]	more active than Avibactam	more active than Avibactam
NCCc1nnc([C@@H]2CC[C@@H]3CN2C(=O)N3OS(=O)(=O)O)o1 [Compound 703, (2S,5R)-2-(5-(2-aminoethyl)-1,3,4-oxadiazol-2-yl)-7-oxo-1,6-diazabicyclo[3.2.1]octan-6-yl hydrogen sulfate]	more active than Avibactam	more active than Avibactam
O=C1N2C[C@@H](CC[C@H]2c2nnc(CCNC3CNC3)o2)N1OS(=O)(=O)O [Compound 745, (2S,5R)-2-(5-(2-(azetidin-3-ylamino)ethyl)-1,3,4-oxadiazol-2-yl)-7-oxo-1,6-diazabicyclo[3.2.1]octan-6-yl hydrogen sulfate]	more active than Avibactam	more active than Avibactam
N=C(N)Nc1nnc([C@@H]2CC[C@@H]3CN2C(=O)N3OS(=O)(=O)O)o1 [Compound 738, (2S,5R)-2-(5-guanidino-1,3,4-oxadiazol-2-yl)-7-oxo-1,6-diazabicyclo[3.2.1]octan-6-yl hydrogen sulfate]	more active than Avibactam	more active than Avibactam
N=C(N)NC[C@@H](O)c1nnc([C@@H]2CC[C@@H]3CN2C(=O)N3OS(=O)(=O)O)o1 [Compound 731, (2S,5R)-2-(5-((R)-2-guanidino-1-hydroxyethyl)-1,3,4-oxadiazol-2-yl)-7-oxo-1,6-diazabicyclo[3.2.1]octan-6-yl hydrogen sulfate]	more active than Avibactam	more active than Avibactam
N[C@H]1C[C@H](c2nnc([C@@H]3CC[C@@H]4CN3C(=O)N4OS(=O)(=O)O)s2)C1 [Compound 783, (2S,5R)-2-(5-((1r,3S)-3-aminocyclobutyl)-1,3,4-thiadiazol-2-yl)-7-oxo-1,6-diazabicyclo[3.2.1]octan-6-yl hydrogen sulfate]	more active than Avibactam	more active than Avibactam
N[C@H]1C[C@H](c2nnc([C@@H]3CC[C@@H]4CN3C(=O)N4OS(=O)(=O)O)o2)C1 [Compound 727, (2S,5R)-2-(5-((1r,3S)-3-aminocyclobutyl)-1,3,4-oxadiazol-2-yl)-7-oxo-1,6-diazabicyclo[3.2.1]octan-6-yl hydrogen sulfate]	more active than Avibactam	more active than Avibactam
O=C1N2C[C@@H](CC[C@H]2c2nnc([C@@H]3CCNC3)o2)N1OS(=O)(=O)O [Compound 759, (2S,5R)-7-oxo-2-(5-((R)-pyrrolidin-3-yl)-1,3,4-oxadiazol-2-yl)-1,6-diazabicyclo[3.2.1]octan-6-yl hydrogen sulfate]	more active than Avibactam	more active than Avibactam
N[C@H]1C[C@H](CCc2nnc([C@@H]3CC[C@@H]4CN3C(=O)N4OS(=O)(=O)O)o2)C1 [Compound 753, (2S,5R)-2-(5-(2-((1r,3R)-3-aminocyclobutyl)ethyl)-1,3,4-oxadiazol-2-yl)-7-oxo-1,6-diazabicyclo[3.2.1]octan-6-yl hydrogen sulfate]	more active than Avibactam	more active than Avibactam
O=C1N2C[C@@H](CC[C@H]2c2nnc(CN3CCNCC3)o2)N1OS(=O)(=O)O [Compound 777, (2S,5R)-7-oxo-2-(5-(piperazin-1-ylmethyl)-1,3,4-oxadiazol-2-yl)-1,6-diazabicyclo[3.2.1]octan-6-yl hydrogen sulfate]	more active than Avibactam	more active than Avibactam
